Measurements from ChEMBL document CHEMBL1201862, “PubChem BioAssay data set” (2004).
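Grown in 96-well plates, cells were treated for 48 hours with each compound at five concentrations. Insufficient inhibition: endpoint recorded as highest concentration tested. GI50 marks 50% less growth.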 The source made the active and inactive calls. Cut-off read from the data, not from the text of the source: active = GI50 up to about 1.1 µM and inactive = higher.

Key:
Test in all cases: NCI-60 cell line screen, 48 h
[1] = test system: ACHN
[2] = test system: NCI-H23
[3] = test system: TK-10
[4] = test system: BT-549
[5] = test system: DU-145
[6] = test system: RXF 393
[7] = test system: UACC-62
[8] = test system: SK-MEL-28
[9] = test system: PC-3
[10] = test system: T47D
[11] = test system: MDA-MB-231
[12] = test system: OVCAR-4
[13] = test system: CCRF-CEM
[14] = test system: MDA-N
[15] = test system: 786-0
[16] = test system: OVCAR-8
[17] = test system: M14
[18] = test system: UACC-257
[19] = test system: EKVX
[20] = test system: HOP-92

Row | SMILES | GI50 [1] | GI50 [2] | GI50 [3] | GI50 [4] | GI50 [5] | GI50 [6] | GI50 [7] | GI50 [8] | GI50 [9] | GI50 [10] | GI50 [11] | GI50 [12] | GI50 [13] | GI50 [14] | GI50 [15] | GI50 [16] | GI50 [17] | GI50 [18] | GI50 [19] | GI50 [20]
1 | CC(=O)O.CN1CCN(CN2C(=O)C3C4C=CC(C3C2=O)C2C3C(=O)N(CN5CCN(C)CC5)C(=O)C3C42)CC1 (centres undefined) | 27.6 µM (inactive) | 20.7 µM (inactive) | 45.3 µM (inactive) | 25.5 µM (inactive) | 25.1 µM (inactive) | 17.7 µM (inactive) | 20.7 µM (inactive) | 28 µM (inactive) | 33.7 µM (inactive) | 30 µM (inactive) | 24.4 µM (inactive) | 21.4 µM (inactive) | 18.5 µM (inactive) | 17.8 µM (inactive) | 19.9 µM (inactive) | 27.8 µM (inactive) | 18.9 µM (inactive) |  |  | 
2 | O=C(c1ccccc1)c1ccc(N2C(=O)/C(=C/Cc3ccco3)N=C2c2ccccc2)c(N2C(=O)/C(=C/Cc3ccco3)N=C2c2ccccc2)c1 | 33 µM (inactive) |  | 55.8 µM (inactive) | 35.6 µM (inactive) | 30 µM (inactive) |  | 26.5 µM (inactive) | > 100 µM (inactive) | 39.8 µM (inactive) | 36.4 µM (inactive) | 37.9 µM (inactive) | 39.9 µM (inactive) | 11.1 µM (inactive) | 60.3 µM (inactive) | 45.7 µM (inactive) | 29.3 µM (inactive) | 39.9 µM (inactive) | 47.1 µM (inactive) | 81.5 µM (inactive) | 97.1 µM (inactive)
3 | CC(C)C1=C(O)C(=O)C2=C(C1=O)C(O)CC1C(C)(C)CCCC21C (centres undefined) | 3.85 µM (inactive) | 1.79 µM (inactive) | 14.5 µM (inactive) | 8.55 µM (inactive) | 8.3 µM (inactive) | 2.14 µM (inactive) | 2.67 µM (inactive) | 13.3 µM (inactive) | 10.2 µM (inactive) |  | 2.84 µM (inactive) | 14.6 µM (inactive) | 6.71 µM (inactive) | 2 µM (inactive) | 9.2 µM (inactive) | 5.36 µM (inactive) | 3.92 µM (inactive) | 11.3 µM (inactive) | 6.56 µM (inactive) | 3.61 µM (inactive)
4 | CN(C)c1ccc(/C=C(\NC(=O)c2ccccc2)C(=O)Nc2ccccc2C(=O)NN2C(=O)CSC2c2ccc(N(C)C)cc2)cc1 (centres undefined) | > 100 µM (inactive) | > 100 µM (inactive) |  | > 100 µM (inactive) | > 100 µM (inactive) | 86.3 µM (inactive) | > 100 µM (inactive) | > 100 µM (inactive) | > 100 µM (inactive) | > 100 µM (inactive) | > 100 µM (inactive) |  | > 100 µM (inactive) | > 100 µM (inactive) | 80.2 µM (inactive) | > 100 µM (inactive) | > 100 µM (inactive) | 16.1 µM (inactive) | > 100 µM (inactive) | > 100 µM (inactive)
5 | Clc1ccccc1C(SCc1ccccc1)SCc1ccccc1 | > 100 µM (inactive) | > 100 µM (inactive) | > 100 µM (inactive) | > 100 µM (inactive) | > 100 µM (inactive) | > 100 µM (inactive) | 94.4 µM (inactive) | > 100 µM (inactive) | > 100 µM (inactive) |  |  | > 100 µM (inactive) | > 100 µM (inactive) | > 100 µM (inactive) | > 100 µM (inactive) | > 100 µM (inactive) | > 100 µM (inactive) | > 100 µM (inactive) | 39.6 µM (inactive) | > 100 µM (inactive)
6 | C=CC[C@H]1[C@@H](O[Si](C)(C)C(C)(C)C)[C@H](n2ccc(=O)[nH]c2=O)O[C@@H]1CO[Si](C)(C)C(C)(C)C | 2.33 µM (inactive) | 2.14 µM (inactive) | 2.97 µM (inactive) | 3.05 µM (inactive) | 2.09 µM (inactive) | 1.56 µM (inactive) | 1.74 µM (inactive) | 1.55 µM (inactive) | 2.44 µM (inactive) | 2.61 µM (inactive) | 1.96 µM (inactive) | 1.82 µM (inactive) | 2.52 µM (inactive) |  | 1.56 µM (inactive) | 1.87 µM (inactive) | 1.57 µM (inactive) | 2.45 µM (inactive) | 1.67 µM (inactive) | 1.21 µM (inactive)
7 | Cc1ccc(S(=O)(=O)N(CCN2C(=O)c3ccccc3C2=O)c2cc3c4c(c2)Oc2cc(N(CCN5C(=O)c6ccccc6C5=O)S(=O)(=O)c5ccc(C)cc5)cc5c2C4(C)c2c(cc(N(CCN4C(=O)c6ccccc6C4=O)S(=O)(=O)c4ccc(C)cc4)cc2O5)O3)cc1 | > 100 µM (inactive) |  | > 100 µM (inactive) | > 100 µM (inactive) | > 100 µM (inactive) | > 100 µM (inactive) | > 100 µM (inactive) | > 100 µM (inactive) | > 100 µM (inactive) | > 100 µM (inactive) | 4.89 µM (inactive) | > 100 µM (inactive) | > 100 µM (inactive) | > 100 µM (inactive) | > 100 µM (inactive) | > 100 µM (inactive) | 35.7 µM (inactive) | > 100 µM (inactive) | > 100 µM (inactive) | 
8 | COC(=O)c1c(C)c2c(c(C)c1C(=O)OC)-c1c(C)ccc3ccc(C)c-2c13 | > 100 µM (inactive) |  | > 65.8 µM (inactive) | > 100 µM (inactive) | > 100 µM (inactive) | 15.6 µM (inactive) | 47.5 µM (inactive) | 68.2 µM (inactive) | 28.7 µM (inactive) | 18.4 µM (inactive) | 3.94 µM (inactive) | > 68.5 µM (inactive) | 11.4 µM (inactive) | 61.5 µM (inactive) | 19.1 µM (inactive) | 47.1 µM (inactive) | 21 µM (inactive) | > 54.5 µM (inactive) | 66.4 µM (inactive) | 
9 | O=C(c1ccc2ccccc2c1)C1(I)S(=O)(=O)OCCOS1(=O)=O | > 100 µM (inactive) | > 100 µM (inactive) | > 100 µM (inactive) | > 100 µM (inactive) | > 100 µM (inactive) |  |  | > 100 µM (inactive) | > 100 µM (inactive) |  | > 100 µM (inactive) | > 100 µM (inactive) | > 100 µM (inactive) | > 100 µM (inactive) | > 100 µM (inactive) | > 100 µM (inactive) | > 100 µM (inactive) |  | > 100 µM (inactive) | 
10 | Nc1nc(N)c2c(n1)CCC(S(=O)(=O)c1ccc3ccccc3c1)C2 (centres undefined) | 3.85 µM (inactive) | 2.53 µM (inactive) | 4.57 µM (inactive) | 6.65 µM (inactive) | 9.59 µM (inactive) |  |  | 27.7 µM (inactive) | 17.6 µM (inactive) | 14.5 µM (inactive) | 42.4 µM (inactive) |  | 5.2 µM (inactive) | 0.766 µM (active) | 23.1 µM (inactive) | 5.26 µM (inactive) | 12.6 µM (inactive) | 12.5 µM (inactive) | 31.8 µM (inactive) | 9.1 µM (inactive)
11 | Nc1cc2ncnn2c(SCC(=O)N/N=C/C(Br)=C\c2ccccc2)n1 | 16.9 µM (inactive) | 10.8 µM (inactive) | 31.8 µM (inactive) | 17.3 µM (inactive) | > 10 µM (inactive) | 15.8 µM (inactive) | 7.23 µM (inactive) | 16 µM (inactive) | 12.6 µM (inactive) | 3.49 µM (inactive) | 15.5 µM (inactive) |  | 5.77 µM (inactive) | 16.2 µM (inactive) | 15.1 µM (inactive) | 15.9 µM (inactive) |  | 9.62 µM (inactive) | 22.5 µM (inactive) | 
12 | O=c1cc2oc3ccc4ccccc4c3cc-2c(=O)[nH]1 | 17 µM (inactive) | 1.42 µM (inactive) |  | 1.34 µM (inactive) | 13.6 µM (inactive) |  | 17.9 µM (inactive) | 17.9 µM (inactive) | 10.6 µM (inactive) |  |  | 22.3 µM (inactive) | 1.07 µM (active) | 11.3 µM (inactive) | 13.8 µM (inactive) | 1.56 µM (inactive) | 18.2 µM (inactive) | 16.4 µM (inactive) | 18 µM (inactive) | 
13 | O=c1c(-c2ccc3c(c2)OCO3)coc2c3c(ccc12)OCO3 | 18.5 µM (inactive) | 19.2 µM (inactive) | 19.1 µM (inactive) | 15.6 µM (inactive) | 41.4 µM (inactive) |  | 76.7 µM (inactive) | 24.3 µM (inactive) | 75.9 µM (inactive) | 37.8 µM (inactive) | 21.5 µM (inactive) | 24.8 µM (inactive) | > 100 µM (inactive) | 93.5 µM (inactive) | 19.4 µM (inactive) |  | 30 µM (inactive) | 53.1 µM (inactive) | 38 µM (inactive) | 18 µM (inactive)
14 | C[C@@H]1CC(=O)[C@@]2(C)[C@](O)(CCC3O[C@]32C)[C@@]12CC(c1ccoc1)OC2=O (some centres undefined) | 70.6 µM (inactive) | > 100 µM (inactive) | > 100 µM (inactive) | 68.2 µM (inactive) | > 100 µM (inactive) | 31.8 µM (inactive) | 56.9 µM (inactive) | > 100 µM (inactive) | > 100 µM (inactive) | > 100 µM (inactive) | > 100 µM (inactive) | > 100 µM (inactive) | 20.5 µM (inactive) | 33.5 µM (inactive) | 75.7 µM (inactive) | > 100 µM (inactive) | 72.4 µM (inactive) | > 100 µM (inactive) | > 100 µM (inactive) | 
15 | Cc1ccc2c(O)cc(-c3cccc4ccccc34)nc2n1 | 0.102 µM (active) | 0.0352 µM (active) |  | 0.652 µM (active) | 0.0392 µM (active) | 0.497 µM (active) | 0.01 µM (active) | 0.016 µM (active) | 0.0282 µM (active) | 67.8 µM (inactive) | 0.0522 µM (active) | 0.495 µM (active) | 0.0251 µM (active) | < 0.01 µM (active) | 0.0349 µM (active) | 0.032 µM (active) | 0.0247 µM (active) |  | 0.0338 µM (active) | 0.0127 µM (active)
